Patent US20100028278A1, “USE OF CHROMAN-4-ONE DERIVATIVES” (Merck Patent Gesellschaft MIT Beschrankter Haftung, priority 2007, published 2010)

System: Normal human adipocytes
Test: Assessment of lipid synthesis in adipocytes in suspension (anti-cellulitis efficacy test)
Format: cell-based
Details: radioactively labelled acetate (2-C14) into lipids, versus comparative sample
Protocol: Normal human adipocytes are isolated starting from biopsies (plastic surgery). Immediately after receipt, the samples are incubated for 30 min at 37° C. in the presence of collagenase (supplied by Sigma). The suspension of adipocytes is then rinsed and diluted three-fold in the culture medium, The culture medium is formed, for example, from the following: • 1.87 mg/ml of bicarbonate (supplied by Life Technologies), • 25 IU/ml/25 μg/ml of penicillin/streptomycin (supplied by Life Technologies), • 2 mM of glutamine (supplied by Life Technologies), • 100% (vol./vol.) MEM (supplied by Merck Eurolab) and • 0.5% (wt./vol.) bovine albumin (supplied by Sigma).
The adipocytes in suspension are incubated for 4 h at 37° C. in the presence of various concentrations of a compound of the formula I. […]
After incubation for 4 h, the lipids are extracted by the procedure described by Bligh and Dyer, Can. J. Biochem. Physiol., 37, 922 (1959), evaporation is carried out under nitrogen, and the introduced radioactivity is quantified by liquid scintillation (reference liquid scintillation instrument LKB 1210, supplied by Rackbeta).
Any interaction between the radioactively labelled acetate and a compound of the formula I is evaluated in order to confirm the specificity of the labelling by incubating the highest concentration of the compound of the formula I with acetate alone.

For `C/C=C/C/C=C/CCC(=O)[C@H]1O[C@H]1C(N)=O` [Cerulin], the “inhibition of the incorporation of acetate” value was 95%.
